The results in this text go back to patent US20180044343A1, “BICYCLIC IMIDAZOLO DERIVATIVE” (Sumitomo Dainippon Pharma Co., Ltd., priority 2015, published 2018).

Broadly, the IC50 is the point on the concentration scale where inhibition reaches its midpoint. As a reminder, the bioavailability is the share of a dose that reaches the circulation, judged against a reference dose that is usually intravenous. A lower bioavailability goes with little systemic uptake.

Series [1] deals with T1, PDE1B (Homo sapiens, UniProt Q01064). Put plainly: In vitro HTRF PDE1 inhibition assay (PDE1B). It is filed as biochemical. To be noted: in vitro PDE1B HTRF Assay; read-out: IC50. (In TR-FRET formats the signal depends on donor and acceptor labels being close together.)
T1 sequence (Q01064 whole entry, canonical isoform): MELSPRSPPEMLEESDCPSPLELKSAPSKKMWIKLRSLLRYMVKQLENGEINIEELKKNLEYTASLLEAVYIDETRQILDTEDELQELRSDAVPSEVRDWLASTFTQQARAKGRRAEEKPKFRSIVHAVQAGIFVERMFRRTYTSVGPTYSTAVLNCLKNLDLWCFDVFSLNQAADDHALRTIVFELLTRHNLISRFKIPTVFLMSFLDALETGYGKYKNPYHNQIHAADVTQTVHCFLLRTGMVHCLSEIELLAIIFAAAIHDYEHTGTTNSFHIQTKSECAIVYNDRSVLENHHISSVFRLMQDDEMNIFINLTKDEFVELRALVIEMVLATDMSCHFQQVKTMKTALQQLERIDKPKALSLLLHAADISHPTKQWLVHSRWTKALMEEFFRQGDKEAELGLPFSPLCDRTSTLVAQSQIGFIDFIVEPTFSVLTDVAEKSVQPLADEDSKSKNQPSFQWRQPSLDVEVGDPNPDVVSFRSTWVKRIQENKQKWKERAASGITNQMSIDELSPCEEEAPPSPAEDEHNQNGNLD
The target in series [2] is T2, PDE1A3 (Homo sapiens, UniProt P54750). Nature of the series: In vitro HTRF PDE1 inhibition assay (PDE1A3). To be noted: PDE1A3, 100 nM cyclic GMP. It is filed as biochemical. The source says: (§1) An exemplary procedure for the in vitro Homogenous Time Resolved Fluorescence assay, which can be used to determine the inhibitory action of compounds of the present invention toward PDE1 or its isoforms, follows.
(§2) The HTRF PDE1 assay utilized the HTRF (Homogenous Time Resolved Fluorescence) technology, which is based on the competition between unlabeled cyclic nucleotide and cyclic nucleotide labeled with XL665 for the binding to cyclic nucleotide-specific antibody labeled with cryptate. The HTRF signal is thus inversely proportional to the concentration of cyclic nucleotide being measured. Since phosphodiesterases break down cyclic nucleotides, the HTRF signal was used to determine PDE activity.
(§3) The Cisbio cGMP HTRF assay kit (Cat no: 62GM2PEC) was utilized. Cyclic GMP was diluted to 200 nM in HTRF assay buffer (1 mM CaCl2, 10 mM MgCl2, 10 mM Tris-HCl, 0.1% BSA, pH 7.4). 10 μl of compound or DMSO was diluted in 200 nM cyclic GMP solution and added to wells of a 96 well white plate to give 100 nM cyclic GMP in 1% DMSO final concentration. PDE (1A3, 1B or 1C) was diluted to 2× working concentration in HTRF assay buffer with 2 μg/ml Calmodulin, and 10 μl was added to initiate the reaction. The plate was then incubated for 45 minutes at 27° C. d2-Labelled cyclic GMP and anti-cGMP cryptate were diluted in 50 mM phosphate buffer, 0.8 M KF, 1% Triton X100, 0.2% BSA, pH 7.0. Following incubation 10 μl d2-cGMP, then 10 μl anti cGMP cryptate were added to each well and the plate was incubated for 60 minutes at room temperature. The plate was then read on Perkin Elmer EnVision at 2 different FRET readings ex/em 340 nm/665 nm and 340 nm/615 nm.
(§4) Compounds having an IC50 of <1 μM are denoted as +++. Compounds having an IC50 of 1-10 μM are denoted as ++. Compounds having an IC50 of 10-100 μM are denoted as +.

For series [3], the target named is T3, PDE1C (Homo sapiens, UniProt Q14123). Nature of the series: In vitro HTRF PDE1 inhibition assay (PDE1C). To be noted: 100 nM cyclic GMP. It is filed as biochemical.
Source text: as §1, §2, §3, §4

For series [4], the target named is T1, PDE1B. Nature of the series: In vitro SPA PDE1 inhibition assay (PDE1B). It is filed as biochemical. To be noted: [3H]-cGMP 100 nM. How it is done:
(§5) The commercially available Scintillation Proximity Assay (SPA) system (Perkinelmer) was used for PDE1 inhibition assays. SPA Yttrium Silicate beads preferentially binds to non-cyclic GMP compared to cyclic GMP (cGMP) in the presence of zinc sulphate, which enables to measure the amount of enzyme reaction product ([^3H]-GMP) by scintillation counting.
(§6) For PDE1 inhibition assay, 10 μl of the test compounds in 5% dimethyl sulfoxide diluted in SPA assay buffer (1 mM CaCl2, 10 mM MgSO4, 10 mM Tris-HCl, pH 7.4) were placed in a 96-well white microtiter plate, and 20 μl of [^3H]-cGMP solution (100 nM final concentration, Perkinelmer) in SPA assay buffer was added. Assays were initiated by adding 20 μl of PDE (1A3, 1B or 1C) enzyme solution including calmodulin (final concentration 1 μg/ml). After 30 min incubation at 27° C., the reaction was stopped by the addition of 50 μl of a suspension of 10 mg/ml SPA beads in 18 mM ZnSO4. The microtiter plates were settled for 60 min, and then were measured in a TopCount NXT scintillation counter (PerkinElmer). IC50 values were determined from sigmoidal curves by plotting the percentage of PDE activity versus log compound concentration. IC50 was defined as the concentration of the test compounds required to inhibit the cyclic nucleotide hydrolyzing activities of tested PDEs by 50%.

Series [5] addresses T2, PDE1A3. Nature of the series: In vitro SPA PDE1 inhibition assay (PDE1A3). The class given is biochemical. To be noted: PDE1A3, [3H]-cGMP 100 nM. How it is done: as §5, §6
Series [6] has as its target T3, PDE1C. Nature of the series: In vitro SPA PDE1 inhibition assay (PDE1C). To be noted: [3H]-cGMP 100 nM. It is filed as biochemical. How it is done: as §5, §6
Series [7] can be described thus: Evaluation of bioavailability, PK test in rats. It is filed as in vivo. To be noted: rat; 7 week-old SD rats, intravenous vs oral administration, plasma LC-MS. How it is done: This test can be used to assess pharmacokinetics of the compounds of the present invention. Each compound of the invention was administered to 7 week-old SD rats intravenously with a solution in saline: 0.1N HCl=9:1 or orally with a 0.5% suspension in methyl cellulose, and each blood sample was collected at an appropriate interval as follows:
5, 15, and 30 minutes, and 1, 2, 4, 6, and 24 hours after intravenous administration
15 and 30 minutes, and 1, 2, 4, 6, and 24 hours after oral administration
The plasma was obtained from each blood, and the concentration of each compound in the plasma was measured with an LC-MS to calculate each pharmacokinetic parameter based on the concentration change.

Series [8] can be described thus: Test for drug transportation to brain in rats. The class given is in vivo. To be noted: rat; SD rats, oral, one hour after administration; non-binding drug concentration ratio between brain and plasma. The source says: Test for Drug Transportation to Brain in Rats
This test can be used to assess transportation of the compounds of the present invention to the brain. Each compound of the invention was orally administered to 7 week-old SD rats with a 0.5% suspension in methyl cellulose, and each plasma and brain were collected one hour after administration to measure the concentration of each compound in the plasma and the brain with an LC-MS.
Each protein binding ratio of the compounds in the plasma and the brain was measured by the equilibrium dialysis method.
The obtained concentrations and protein binding ratios of the compounds in the plasma and the brain can be applied to the following equation to calculate Kp, uu, brain (i.e., non-binding drug concentration ratio between brain and plasma).
Kp, uu, brain=[Compound concentration in brain×(100−Protein binding ratio in brain (%))/100]/[Compound concentration in plasma×(100−Protein binding ratio in plasma (%))/100]

For series [9], the system named is cognitive dysfunction in PCP-treated rats. Nature of the series: Novel object recognition test in rats repeatedly treated with phencyclidine (PCP). It is filed as in vivo. To be noted: rats given PCP 3 mg/kg i.p. twice a day for 10 days; compound 1 or 3 mg/kg orally 60 minutes before test; compared to PCP+vehicle group. How it is done:
Since an N-Methyl-D-aspartate receptor antagonist phencyclidine (PCP) has been known to cause schizophrenia-like symptoms including cognitive dysfunction in humans, PCP-treated animals have been widely used as a schizophrenic animal model. Using rats to which PCP was repeatedly administered as a schizophrenic animal model, the improvement in cognitive dysfunction with the compounds of the invention was evaluated in the novel object recognition test. Rats were habituated to the test environment which is a box (50 cm×50 cm×35 cm) with no object inside for 1 hour per day for 3 days. On the test day, rats were again put into the test box with no object inside to habituate themselves for three minutes. The rats were then put into the test box with two identical objects inside and were made to explore inside for three minutes for a training trial. After one minute, they were put into the test box with one of the objects (i.e., the familiar object) that was the same as used in the training trial and another object (i.e., a novel object) inside and were made to explore inside for three minutes for a test trial. Cognitive function was evaluated on the basis of preference for the novel object in the test trial utilizing rats' habit of exploring a novel object longer than a familiar object. Discrimination Index was calculated from the following equation as an index for preference of a novel object.
Discrimination Index=(Time to explore novel object−Time to explore familiar object)/(Time to explore novel object+Time to explore familiar object)

For `CCOC[C@H]1CC[C@H](COc2nn3c(C4CCOCC4)ncc3c(=O)n2C)CC1` [Example 288, 2-{[trans-4-(ethoxymethyl)cyclohexyl]methoxy}-3-methyl-7-(tetrahydro-2H-pyran-4-yl)-imidazo[5,1-][1,2,4]triazin-4(3H)-one], the IC50 is < 1 µM in series [1]; < 1 µM in series [2]; < 1 µM in series [3]; 0.023 µM in series [4]; 0.08 µM in series [5]; 0.276 µM in [6]. The compound also had a bioavailability in series [7] of 54.5%. Also, the Kp uu at 1 h in series [8] worked out at 0.61. The “Discrimination Index in novel object recognition test” value (“Discrimination Index” for short) in series [9] is given as “significant increase”.

In the case of `Cn1c(OC[C@H]2CC[C@H](C(F)(F)F)CC2)nn2c(C3CCOCC3)ncc2c1=O` [Example 245, 3-methyl-7-(tetrahydro-2H-pyran-4-yl)-2-{[trans-4-(trifluoromethyl)cyclohexyl]methoxy}-imidazo[5,1-][1,2,4]triazin-4(3H)-one], the half-inhibitory concentration (IC50) is < 1 µM in series [1]; < 1 µM in series [2]; < 1 µM in series [3]; 0.036 µM in series [4]; 0.113 µM in series [5]; 0.547 µM in series [6]. This compound had a bioavailability in series [7] of 30.4%. Besides, the Kp uu at 1 h in [8] amounted to 0.72. Moreover, the “Discrimination Index” value in [9] is “significant increase”.

As for `CC(C)c1ncc2c(=O)n(C)c(NCc3ccc(Cl)cn3)nn12` [Example 149, 2-{[(5-chloropyridin-2-yl)methyl]amino}-3-methyl-7-(propan-2-yl)imidazo[5,1-f][1,2,4]triazin-4(3H)-one], the IC50 in [1] is < 1 µM; in series [2], < 1 µM; in series [3] it was < 1 µM; in series [4], 0.051 µM; in series [5] it was 0.144 µM; in [6], 0.425 µM. Further, in series [7], the bioavailability stood at 55.6%. In series [8], the Kp uu at 1 h was 0.3. Further, the “Discrimination Index” value in [9] was “significant increase”.

`COc1nn2c(C3CCOCC3)ncc2c(=O)n1Cc1ccc(Cl)cc1` [Example 109, 3-(4-chlorobenzyl)-2-methoxy-7-(tetrahydro-2H-pyran-4-yl)imidazo[5,1-f][1,2,4]triazin-4(3H)-one]: the IC50 in series [1] was < 1 µM; in [2], < 1 µM; in series [3], < 1 µM; in series [4] it was 0.028 µM; in series [5], 0.023 µM; in series [6], 0.057 µM. Besides, the Kp uu at 1 h in [8] is 1.02.

As for `CCO[C@H]1CC[C@H](COc2nn3c(C4CCOCC4)ncc3c(=O)n2C)CC1` [Example 246, 2-[(trans-4-ethoxycyclohexyl)methoxy]-3-methyl-7-(tetrahydro-2H-pyran-4-yl)imidazo[5,1-][1,2,4]triazin-4(3H)-one], the half-inhibitory concentration (IC50) was < 1 µM in [1]; < 1 µM in series [2]; < 1 µM in series [3]; 0.064 µM in series [4]; 0.289 µM in [5]; 0.788 µM in series [6]. In [7], this compound had a bioavailability of 51.6%. Moreover, the Kp uu at 1 h in series [8] stood at 0.26.

Take `CCn1c(OCC2CCC(F)(F)CC2)nn2c(C3CCOCC3)ncc2c1=O` [Example 1]: the IC50 in [1] was < 1 µM; in series [2] it was < 1 µM; in series [3], < 1 µM; in series [4], 0.088 µM; in series [5] it was 0.22 µM; in series [6], 0.665 µM. In addition, the bioavailability in series [7] came to 23.3%. The Kp uu at 1 h in series [8] was 0.69. Besides, the “Discrimination Index” value in [9] is “significant increase”.

`CCOC[C@H]1CC[C@H](Oc2nn3c(C4CCOCC4)ncc3c(=O)n2C)CC1` [Example 256, 2-{[trans-4-(ethoxymethyl)cyclohexyl]oxy}-3-methyl-7-(tetrahydro-2H-pyran-4-yl)-imidazo-[5,1-][1,2,4]triazin-4(3H)-one]: the IC50 in series [1], in series [2] and in series [3] was < 1 µM in each case. In series [7], this compound returned a bioavailability of 14.3%.

For `COc1nn2c(C3CCOCC3)ncc2c(=O)n1CC1CCC(F)(F)CC1` [Example 115, 3-[(4,4-difluorocyclohexyl)methyl]-2-methoxy-7-(tetrahydro-2H-pyran-4-yl)imidazo[5,1-][1,2,4]triazin-4(3H)-one], the concentration for half-maximal inhibition (IC50) in series [1] is < 1 µM; in series [2] it was < 1 µM; in series [3], < 1 µM; in series [4], 0.033 µM; in [5] it was 0.034 µM; in [6], 0.065 µM. The compound further displayed a bioavailability in series [7] of 13.4%. In series [8], the Kp uu at 1 h came to 0.96. Also, the “Discrimination Index” value in series [9] was “significant increase”.

Consider `Cc1nn2c(C3CCOCC3)ncc2c(=O)n1Cc1ccccc1` [Example 238, 3-Benzyl-2-methyl-7-(tetrahydro-2H-pyran-4-yl)imidazo[5,1-f][1,2,4]triazin-4(3H)-one], for which the half-inhibitory concentration (IC50) in series [1] was < 1 µM; in [2], < 1 µM; in [3] it was < 1 µM; in series [4], 0.145 µM; in [5] it was 0.137 µM; in series [6], 0.027 µM.
